Common to all, as to assay: NCI tumour cell line growth inhibition, 48 h
Test [1] relates to DMS 114 small cell lung.
In test [2] the test system is KM20L2 colon.
The subject of test [3] is DLD-1 colon.
The test system of test [4] is RXF-631 renal.
In test [5] the test system is LXFL 529 NSCLC.
For test [6], the system named is P388/ADR leukemia.
The test system of test [7] is BT-549 breast.
The test system of test [8] is MCF7 breast.
In test [9] the test system is MDA-N.
Test [10] has as its system P388 leukemia.
The subject of test [11] is SN12K1 renal.
Test [12] deals with T-47D breast.

Values joined by “and” are separate entries in the source; they are usually repeats but may differ in a detail not shown here. Identical values can stand only once.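 Growth conditions: 96-well plates. Treatment: test compound, 48 hours, 5 concentrations. Analysis: linear interpolation between bracketing concentrations; unreached endpoints set to highest concentration. Abbreviation: GI50, concentration required for 50% inhibition of growth. TGI marks complete inhibition of growth.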

Take `Cc1cc(S(=O)(=O)O)c(NC(=O)C(=O)Cc2cc(=O)oc3cc(O)ccc23)cc1Cl`: the TGI in [1], in test [2], in [3] and in [4] was above 100 µM in each case.
Turning to `O=C1OCC2C1C1c3ccccc3C(O)c3ccccc3C21` (configuration not stated), the TGI in test [1], in test [2], in [5], in test [3] and in [4] was above 100 µM throughout.
Take `CC(C)C(=O)NS(=O)(=O)c1ccccc1`: the TGI in test [1], in test [2], in test [5], in [3] and in [4] was above 100 µM each time.
On to `Cc1c(/C=N/NC(=O)c2ccc(Cl)cc2)c(=O)n(-c2ccccc2)n1C`, for which the TGI in test [1], in [2], in test [5] and in test [3] was above 100 µM each time.
With `O=P1(c2ccccc2)CCCCC1`, the TGI in test [1], in test [2], in test [5] and in test [3] was above 100 µM each time.
As to `O=C(O)CC(NC(=O)CP(=O)(O)O)C(=O)O` (configuration not stated), the TGI is above 8350 µM in [6]; above 10000 µM in test [7]; above 10000 µM in [8]; above 10000 µM in test [1]; above 10000 µM in test [2]; above 10000 µM in test [9]. For the same compound, the TGI in test [10] was above 5860 µM; in test [11], above 10000 µM; in test [12], above 10000 µM; in [3], 9920 µM. The GI50 in test [9] was 54.1 µM.
Regarding `CC(C)C(=O)Nc1nc2c(ncn2C2OC(CO)C(O)C2O)c(=O)[nH]1` (configuration not stated), the TGI in test [1], in [2], in [5], in test [3] and in [4] was above 100 µM throughout.
As for `O=S(=O)(c1ccccc1)C1CN2OC1(S(=O)(=O)c1ccccc1)CC2c1ccc(Br)cc1` (configuration not stated), the TGI in test [1], in test [2], in test [3] and in test [4] was above 100 µM in each case.
Take `O=[N+]([O-])c1ccc(N2N=C(c3ccc(NCc4nc5ccccc5[nH]4)cc3)CC2c2ccco2)cc1` (configuration not stated): the TGI in test [1] is 50.9 µM; in test [5], 38.5 µM; in test [3], above 100 µM.
Consider `COc1cc2c(OC)cc1CSCc1sc(C)c(c1Br)CSC2`, for which the TGI in [1], in test [2], in test [5], in test [3] and in [4] was above 100 µM in each case.
As to `CC1COC(C)(C)P(=O)(c2ccccc2)C1` (configuration not stated), the TGI in test [1], in [2], in test [5] and in test [3] was above 100 µM throughout.
In the case of `CCOP(=O)(OCC)OC1C=CC2CCC1C2` (configuration not stated), the TGI in [1], in [2], in [5], in [3] and in test [4] was above 100 µM each time.
With `COC1(OC)CC2C(=O)N(Cc3ccccc3)C1C=C2S(=O)(=O)c1ccccc1` (configuration not stated), the TGI turned out to be 31.9 µM in test [1], 33.1 µM in test [2], 34.2 µM in [5] and 27.6 µM in test [3].
Take `Cc1ccc(S(=O)(=O)c2ccc(N)cc2)cc1`: the TGI in test [2], in test [5], in test [3] and in test [4] was above 100 µM each time.
Consider `Cc1cc(NS(=O)(=O)c2ccc(Nc3c4ccccc4nc4c(C(=O)N5CCN(CCO)CC5)ccc(Cl)c34)cc2)no1`, for which the TGI in [1], in test [2], in [3] and in test [4] was above 100 µM each time.
For the compound `S=c1[nH]c(=S)c2nnn(-c3ccccc3)c2[nH]1`, the TGI in test [1], in test [2], in test [5] and in test [3] was above 100 µM in each case.
As for `Cc1nc([N+](=O)[O-])cn1CC(=N)N`, the TGI in test [1], in test [2], in test [5], in test [3] and in test [4] was above 100 µM each time.
Consider `CC(C)N(C(=O)C12C3C4C1(I)C1C2C3(I)C41C(=O)N(C(C)C)C(C)C)C(C)C` (configuration not stated), for which the TGI in test [2], in test [5], in test [3] and in [4] was above 100 µM each time.
`COC(=O)/C=C/c1c(CC=C(C)C)ncn1C`: the TGI in [1] is above 100 µM; in test [2], above 65.8 µM; in [5] it was above 100 µM; in test [3] it was above 100 µM; in test [4] it was above 100 µM.
With `CCCN1CN(C(C(=O)N[C@@H]2C(=O)N3C2SC(C)(C)C3C(=O)O)c2ccc(O)cc2)CSC1=S` (some centres not stated), the TGI in test [1] was 65.3 µM; in test [2] it was above 100 µM; in test [5], above 100 µM; in [3], above 100 µM.
Consider `COC(=O)[C@H]1C=C[C@@H](C)n2c(=O)c3cc4ccccc4cc3c(=O)n21`, for which the TGI in test [1], in test [2], in [5], in [3] and in test [4] was above 100 µM in each case.
Turning to `CC[C@H]1CN2CCc3cc(OC)c(OC)cc3[C@@H]2C[C@@H]1C[C@H]1NCCc2c1[nH]c1ccc(O)cc21`, the TGI in test [6] is above 100 µM; in test [7], 0.602 µM; in test [8] it was 0.137 µM; in test [1], 0.0184 µM and 0.0571 µM; in test [2] it was 0.0858 µM and 0.47 µM and 0.241 µM; in test [9], 0.0568 µM and 0.182 µM. The TGI in test [11] was 2.64 µM; in [12] it was 0.0897 µM and 0.0583 µM; in test [3] it was 0.246 µM and 0.57 µM and 1.58 µM. In addition, the GI50 is 0.558 µM in test [7]; 0.0047 µM and 0.0133 µM in test [1]; 0.0317 µM and 0.0549 µM in [2]; 0.0234 µM in test [9]; 0.0233 µM in test [12]; 0.144 µM in [3].
For the compound `Cc1ccc(NC(=O)CSc2nnc(-c3ccc(N=Cc4ccc(Cl)cc4)cc3)o2)cc1`, the TGI in test [1], in [2] and in test [5] was above 100 µM in each case.
On to `N#CC(C(=O)C(=O)Nc1ccc(Cl)cc1)c1ccccc1` (configuration not stated), for which the TGI in [1], in test [2], in [5], in test [3] and in test [4] was above 100 µM each time.
For `COc1cc(C=O)c(-c2cc(OC)c(OC)cc2C=O)cc1OC`, the TGI was 88.3 µM in test [1], above 100 µM in test [2], above 100 µM in test [5] and above 100 µM in test [3].
`CCCO/S(=N\S(=O)(=O)c1ccccc1)c1ccccc1[N+](=O)[O-]` (configuration not stated): the TGI in test [1], in test [2], in [5], in test [3] and in test [4] was above 100 µM in each case.
With `CC(C)N(CCn1c2c3ccccc3ccc2c2oc(=O)c3ccccc3c21)C(C)C`, the TGI in test [1], in test [2], in [5], in test [3] and in test [4] was above 100 µM throughout.
Turning to `C/C(CC(=O)Nc1cccc(Cl)c1C)=N\NC(=O)c1ccncc1`, the TGI in [1], in [2], in test [5] and in [3] was above 100 µM in each case.
For the compound `Cc1cc(C)nc(NS(=O)(=O)c2ccc(NC(=O)c3cccc4c(Nc5ccc(S(N)(=O)=O)cc5)c5ccccc5nc34)cc2)n1`, the TGI in [1] was 42.6 µM; in test [2], above 100 µM; in test [5], above 100 µM; in test [3], above 100 µM; in test [4], above 100 µM.
Consider `CC(=O)O[C@H]1CCC2[C@@H]3CCC4Nc5[nH]ncc5C[C@]4(C)C3CC[C@@]21C` (some centres not stated), for which the TGI in [1], in test [2], in test [5] and in [4] was above 100 µM throughout.
Turning to `COc1c[c]([Hg][O]C(C)=O)c(OC)c(NC(=O)CC(C)=O)[c]1[Hg][O]C(C)=O`, the GI50 in test [2] is 14.2 µM; in test [5], 1.42 µM; in test [3], 2.25 µM. The TGI was determined as 30.9 µM in test [2], 2.85 µM in test [5] and 5.18 µM in test [3].
Take `O=C(/C=C/c1ccccc1Cl)NC1C=Nc2ccc([N+](=O)[O-])cc2NC1` (configuration not stated): the TGI in test [1], in [2], in test [5] and in test [3] was above 100 µM throughout.
`O=Cc1ccc2c(c1-c1c(C=O)ccc3c1OCO3)OCO2`: the TGI in test [1], in test [2], in [5] and in test [3] was above 100 µM throughout.

The values are drawn from PubChem BioAssay (NCI).
